Values of other authors as cited in patent US20040071685A1, “Compositions and methods for increasing the bioavailability of plant polyphenols” (priority 2002, published 2004).

Tests used:
[1] = rats, oral, 700 μM/kg body weight
[2] = adults
[3] = system: alpha-glucosidase (invertase)
[4] = rats, 15 μM administered in the stomach in situ, after 30 minutes

| amount remaining in the stomach [4] | Structure (SMILES) | volume of distribution [2] | also measured |
| --- | --- | --- | --- |
| – | O=C(O)/C=C/c1ccc(O)c(O)c1 [caffeic acid] | – | maximum serum level of conjugates [1]: 0.64 µM; time of maximum serum levels [1]: 2 h |
| – | O=c1c(-c2ccc(O)cc2)coc2cc(O)ccc12 [daidzein] | large | – |
| – | O=c1c(-c2ccc(O)cc2)coc2cc(O)cc(O)c12 [genistein] | large | type of inhibition [3]: reversible, slow-binding, non-competitive inhibitor |
| 15 µM | O=c1c(O[C@@H]2O[C@H](CO)[C@@H](O)[C@H](O)[C@H]2O)c(-c2ccc(O)c(O)c2)oc2cc(O)cc(O)c12 [isoquercitrin] | – | – |
| 8.6 µM | O=c1c(O)c(-c2ccc(O)c(O)c2)oc2cc(O)cc(O)c12 [quercetin] | – | amount found in the bile samples [4]: 4.1 µM |
| 15 µM | C[C@@H]1O[C@@H](OC[C@H]2O[C@@H](Oc3c(-c4ccc(O)c(O)c4)oc4cc(O)cc(O)c4c3=O)[C@H](O)[C@@H](O)[C@@H]2O)[C@H](O)[C@H](O)[C@H]1O [rutin] | – | – |
